Calls of active or inactive are those of the source. The calls are words filed in the database; no cut-off is given here. Starred links: 1 amine or outer side, 2 acyl side, 3 side chain; linkers in the order of their positions; H or OH if unused. Positions of bridges follow the written chain, without caps; N, C: chain ends. Non-standard residues stand in square brackets, D forms with d. Residues, ends and D or L forms follow the SMILES beside them. Chains are numbered I, II in the order given. Actinocin(1to9) = Cc1c2oc3c(C)ccc(C(=O)[*:2])c3nc-2c(C(=O)[*:1])c(N)c1=O; NMeV = CN[C@H](C(=O)O)C(C)C; Sar = CNCC(=O)O
Experiments:
PC-3 = assay: Antiproliferative activity against PC3 cells; format: functional, cell-based; conditions: Homo sapiens
LS174T = assay: Antiproliferative activity against LS174T cells; format: functional, cell-based; conditions: Homo sapiens
[1] = biological target: Cyclin-dependent kinase 4/cyclin D1 (Homo sapiens, UniProt P11802); assay: Inhibition of Cdk4/Cyclin D1; format: protein-complex assay
Chain of Cyclin-dependent kinase 4/cyclin D1 (P11802 whole entry): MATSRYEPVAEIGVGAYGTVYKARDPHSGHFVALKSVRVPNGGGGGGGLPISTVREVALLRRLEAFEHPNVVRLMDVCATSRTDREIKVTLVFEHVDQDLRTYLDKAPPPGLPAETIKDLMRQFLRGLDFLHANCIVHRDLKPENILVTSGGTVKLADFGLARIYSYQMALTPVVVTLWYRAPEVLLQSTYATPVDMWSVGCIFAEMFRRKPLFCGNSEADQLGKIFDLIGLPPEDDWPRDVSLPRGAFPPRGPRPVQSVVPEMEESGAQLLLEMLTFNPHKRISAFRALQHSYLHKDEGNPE
Chain of Cyclin-dependent kinase 4/cyclin D1 (P24385 whole entry, further chain): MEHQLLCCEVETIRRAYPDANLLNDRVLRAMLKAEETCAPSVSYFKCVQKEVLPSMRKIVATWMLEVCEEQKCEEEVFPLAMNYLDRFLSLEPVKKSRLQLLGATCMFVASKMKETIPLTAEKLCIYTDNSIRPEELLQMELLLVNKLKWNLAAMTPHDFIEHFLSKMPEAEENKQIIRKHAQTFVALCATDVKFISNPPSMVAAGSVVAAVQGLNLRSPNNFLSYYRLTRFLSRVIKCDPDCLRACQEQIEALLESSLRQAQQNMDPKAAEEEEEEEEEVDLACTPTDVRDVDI

A549 = assay: Antiproliferative activity against A549 cells; format: functional, cell-based; conditions: Homo sapiens
Calf thymus DNA [2] = assay: Ability to displace ethidium bromide from DNA; format: nucleic-acid assay
Calu-1 [3] = assay: Antiproliferative activity against Calu1 cells; format: functional, cell-based; conditions: Homo sapiens
[4] = biological target: Cyclin-dependent kinase 2/cyclin A (Homo sapiens, UniProt P24941); assay: Inhibition of Cdk2/Cyclin A; format: protein-complex assay
[5] = biological target: Cyclin-dependent kinase 4 (Homo sapiens) (UniProt P11802); assay: Inhibition of Cdk4-mediated phosphorylation of pRB in Calu1 cells at ser 795 residue after 24 hrs by Western blot analysis; format: functional, cell-based; conditions: Calu-1
Chain of Cyclin-dependent kinase 4 (Homo sapiens) (P11802 whole entry): as the sequence (P11802 whole entry) above

[6] = biological target: Cyclin-dependent kinase 4 (Homo sapiens) (UniProt P11802); assay: Inhibition of Cdk4-mediated phosphorylation of pRB in Calu1 cells at ser […] residue after 24 hrs by Western blot analysis; format: functional, cell-based; conditions: Calu-1
Calu-1 [7] = assay: Ratio of cell cycle arrest in serum-starved Calu1 cells at G0/G1phase to S phase after 24 hrs by FACS analysis; format: functional, Homo sapiens
[8] = biological target: Cyclin-dependent kinase 4 (Homo sapiens) (UniProt P11802); assay: Inhibition of Cdk4-mediated phosphorylation of pRB in Calu1 cells at ser 780 residue at 6.2 uM after 24 hrs by Western blot analysis; format: functional, cell-based; conditions: Calu-1
[9] = biological target: Cyclin-dependent kinase 4 (Homo sapiens) (UniProt P11802); assay: Inhibition of Cdk4-mediated phosphorylation of pRB in Calu1 cells at ser […] residue at 6.2 uM after 24 hrs by Western blot analysis; format: functional, cell-based; conditions: Calu-1
Homo sapiens = species: Homo sapiens; assay: Selectivity for Cdk4/Cyclin D1 over Cdk2/Cyclin A
[10] = biological target: T1, DNA topoisomerase 1 (Homo sapiens) (UniProt P11387); assay: Inhibition of DNA relaxation catalysed by topoisomerase1 at 100 uM; format: functional
T1 sequence (whole entry): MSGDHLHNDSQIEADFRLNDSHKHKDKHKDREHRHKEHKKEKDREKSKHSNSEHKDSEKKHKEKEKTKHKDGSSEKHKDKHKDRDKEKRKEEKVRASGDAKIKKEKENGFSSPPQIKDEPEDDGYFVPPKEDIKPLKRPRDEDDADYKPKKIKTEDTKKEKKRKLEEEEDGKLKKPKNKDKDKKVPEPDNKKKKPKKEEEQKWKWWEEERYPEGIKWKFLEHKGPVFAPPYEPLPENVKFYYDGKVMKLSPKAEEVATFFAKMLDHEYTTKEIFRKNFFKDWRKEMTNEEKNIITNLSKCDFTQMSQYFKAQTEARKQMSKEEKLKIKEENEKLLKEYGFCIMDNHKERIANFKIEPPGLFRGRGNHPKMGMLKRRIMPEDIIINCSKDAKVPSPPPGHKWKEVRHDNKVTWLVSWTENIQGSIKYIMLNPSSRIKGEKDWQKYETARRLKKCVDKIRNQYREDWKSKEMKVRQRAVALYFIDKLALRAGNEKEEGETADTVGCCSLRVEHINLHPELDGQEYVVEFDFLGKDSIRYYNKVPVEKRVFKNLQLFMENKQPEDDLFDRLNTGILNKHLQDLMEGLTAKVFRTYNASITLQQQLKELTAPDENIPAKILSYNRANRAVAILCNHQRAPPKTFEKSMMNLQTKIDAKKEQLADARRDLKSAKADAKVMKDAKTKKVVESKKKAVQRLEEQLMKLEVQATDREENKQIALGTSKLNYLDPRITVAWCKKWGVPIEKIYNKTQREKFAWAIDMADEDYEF

[11] = biological target: T1, DNA topoisomerase 1 (Homo sapiens); assay: Inhibition of DNA relaxation catalysed by topoisomerase1 at 10 uM; format: functional
Calf thymus DNA [12] = assay: Ability to displace ethidium bromide from DNA at 100 uM; format: nucleic-acid assay
[13] = biological target: Cyclin-dependent kinase 4 (Homo sapiens) (UniProt P11802); assay: Inhibition of Cdk4-mediated phosphorylation of pRB in Calu1 cells at ser 795 residue at 6.2 uM after 24 hrs by Western blot analysis; format: functional, cell-based; conditions: Calu-1
Calu-1 [14] = assay: Cell cycle arrest in serum-starved Calu1 cells by accumulation at G0/G1 phase after 24 hrs by FACS analysis; format: functional, Homo sapiens
[15] = biological target: Cyclin-dependent kinase 4 (Homo sapiens) (UniProt P11802); assay: Inhibition of Cdk4-mediated phosphorylation of pRB in Calu1 cells at ser 780 residue after 24 hrs by Western blot analysis; format: functional, cell-based; conditions: Calu-1
Calu-1 [16] = assay: Cell cycle arrest in serum-starved Calu1 cells by accumulation at S phase after 24 hrs by FACS analysis; format: functional, Homo sapiens
Calu-1 [17] = assay: Cell cycle arrest in serum-starved Calu1 cells by accumulation at G2/M phase after 24 hrs by FACS analysis; format: functional, Homo sapiens

Compound | IC50 (PC-3) | IC50 (LS174T) | IC50 [1] | IC50 (A549) | Activity (Calf thymus DNA [2]) | IC50 (Calu-1 [3]) | IC50 [4] | also measured
COc1cccc(C(=O)N(C)CCc2c[nH]c3ccccc23)c1 | 85 µM | 109 µM | 81 µM | 95 µM | inactive | 139 µM | 938 µM | –
CN(CCc1c[nH]c2ccccc12)C(=O)c1ccccc1Cl | 92 µM | 99 µM | 46 µM | 96 µM | inactive | 147 µM | 784 µM | –
CN(CCc1c[nH]c2ccccc12)C(=O)c1cccc(F)c1 | 98 µM | 97 µM | 88 µM | 106 µM | inactive | 136 µM | 765 µM | –
CN(CCc1c[nH]c2ccccc12)C(=O)c1ccc(C(C)(C)C)cc1 | 15 µM | 18 µM | 49 µM | 12 µM | inactive | 52 µM | 658 µM | –
CN(CCc1c[nH]c2ccccc12)C(=O)c1ccccc1F | 108 µM | 110 µM | 103 µM | 103 µM | inactive | 145 µM | 1230 µM | –
CN(CCc1c[nH]c2ccccc12)C(=O)c1ccccc1Br | 59 µM | 76 µM | 95 µM | 95 µM | inactive | 122 µM | 584 µM | –
CN(CCc1c[nH]c2ccccc12)C(=O)c1ccc(-c2ccccc2)cc1 | 6.2 µM | 3.5 µM | 6.2 µM | 3.5 µM | inactive | 11.5 µM | 521 µM | Activity [5]: Active; Activity [6]: Active; Ratio (Calu-1 [7]): 16; Activity [8]: Active; Activity [9]: Active; Selectivity ratio (Homo sapiens): 100; Activity [10]: inactive; Activity [11]: inactive; Activity (Calf thymus DNA [12]): < 5%; Activity [13]: Active; Activity (Calu-1 [14]): 64%; Activity [15]: Active; Activity (Calu-1 [16]): 4%; Activity (Calu-1 [17]): 30%
Cc1ccccc1C(=O)N(C)CCc1c[nH]c2ccccc12 | 92 µM | 105 µM | 113 µM | 110 µM | inactive | 141 µM | 1130 µM | –
Cc1ccc(C(=O)N(C)CCc2c[nH]c3ccccc23)cc1 | 55 µM | 82 µM | 63 µM | 92 µM | inactive | 103 µM | 790 µM | –
CN(CCc1c[nH]c2ccccc12)C(=O)c1ccccc1 | 86 µM | 83 µM | 88 µM | 95 µM | inactive | 104 µM | 1520 µM | –
CN(CCc1c[nH]c2ccccc12)C(=O)c1cccc(Cl)c1 | 94 µM | 118 µM | 109 µM | 95 µM | inactive | 123 µM | 1120 µM | –
CN(CCc1c[nH]c2ccccc12)C(=O)c1ccc(F)cc1 | 94 µM | 87 µM | 59 µM | 102 µM | inactive | 141 µM | 850 µM | –
COc1ccccc1C(=O)N(C)CCc1c[nH]c2ccccc12 | 89 µM | 106 µM | 79 µM | 103 µM | inactive | 146 µM | 849 µM | –
Cc1c2oc3c(C)ccc(C(=O)N[C@@H]4C(=O)N[C@H](C(C)C)C(=O)N5CCC[C@H]5C(=O)N(C)CC(=O)N(C)[C@@H](C(C)C)C(=O)O[C@@H]4C)c3nc-2c(C(=O)N[C@@H]2C(=O)N[C@H](C(C)C)C(=O)N3CCC[C@H]3C(=O)N(C)CC(=O)N(C)[C@@H](C(C)C)C(=O)O[C@@H]2C)c(N)c1=O [DACTINOMYCIN] (I: T[dV]P[Sar][NMeV] / II: T[dV]P[Sar][NMeV]; ester I:1-I:C, II:1-II:C; linker I:N-II:N via Actinocin(1to9)) | – | – | – | – | – | – | – | IC50 (Calf thymus DNA [2]): 35 µM
Cc1cccc(C(=O)N(C)CCc2c[nH]c3ccccc23)c1 | 81 µM | 88 µM | 78 µM | 96 µM | inactive | 136 µM | 830 µM | –
CN(CCc1c[nH]c2ccccc12)C(=O)c1cccc(Br)c1 | 66 µM | 89 µM | 74 µM | 91 µM | inactive | 144 µM | 635 µM | –
CN(CCc1c[nH]c2ccccc12)C(=O)c1ccc(Cl)cc1 | 47 µM | 42 µM | 38 µM | 27 µM | inactive | 78 µM | 731 µM | –
CN(CCc1c[nH]c2ccccc12)C(=O)c1ccc(Br)cc1 | 36 µM | 52 µM | 37 µM | 55 µM | inactive | 64 µM | 580 µM | –

Source: ChEMBL document CHEMBL1138971, “CA224, a non-planar analogue of fascaplysin, inhibits Cdk4 but not Cdk2 and arrests cells at G0/G1 inhibiting pRB phosphorylation” (Bioorg Med Chem Lett, 2006)
